ChEMBL document CHEMBL1201862, “PubChem BioAssay data set” (2004)
Several values for one entry are separate records, joined by “and”; a condition that tells them apart may be missing. Equal entries are not always repeated.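 Values below derive from 48-hour exposures of cells grown in 96-well plates, with endpoints linearly interpolated between the two concentrations bracketing the appropriate inhibition level. GI50 = concentration required for 50% inhibition of growth.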 Activity calls are given as the source filed them. Rule as the data show it: active = GI50 up to about 1.1 µM and inactive = higher.

Assays:
Assay in all cases: NCI anticancer screen, dose series, 48 h
ACHN = system: ACHN
CCRF-CEM = system: CCRF-CEM
EKVX = system: EKVX
HCC 2998 = system: HCC 2998
HT-29 = system: HT-29
IGROV-1 = system: IGROV-1
NCI-H226 = system: NCI-H226
OVCAR-3 = system: OVCAR-3
OVCAR-4 = system: OVCAR-4
RPMI-8226 = system: RPMI-8226
SF-539 = system: SF-539
SK-MEL-28 = system: SK-MEL-28
SR = system: SR
U-251 = system: U-251
SK-MEL-5 = system: SK-MEL-5

| Compound | GI50 (ACHN) | GI50 (CCRF-CEM) | GI50 (EKVX) | GI50 (HCC 2998) | GI50 (HT-29) | GI50 (IGROV-1) | GI50 (NCI-H226) | GI50 (OVCAR-3) | GI50 (OVCAR-4) | GI50 (RPMI-8226) | GI50 (SF-539) | GI50 (SK-MEL-28) | GI50 (SR) | GI50 (U-251) | GI50 (SK-MEL-5) |
| --- | --- | --- | --- | --- | --- | --- | --- | --- | --- | --- | --- | --- | --- | --- | --- |
| CSc1nnc2n1-c1ccccc1SCC2 | > 100 µM (inactive) | > 100 µM (inactive) | > 100 µM (inactive) | > 100 µM (inactive) | > 100 µM (inactive) | > 100 µM (inactive) | > 100 µM (inactive) | > 100 µM (inactive) | > 100 µM (inactive) | > 100 µM (inactive) | > 100 µM (inactive) | > 100 µM (inactive) | > 100 µM (inactive) | > 100 µM (inactive) |  |
| COc1ccc(/C=c2/sc3n(c2=O)NC(c2ccc(Cl)cc2)NN=3)cc1 (configuration not stated) |  | > 100 µM (inactive) | > 100 µM (inactive) | > 100 µM (inactive) | > 100 µM (inactive) | > 100 µM (inactive) | > 100 µM (inactive) | > 100 µM (inactive) | > 100 µM (inactive) |  | > 100 µM (inactive) | > 100 µM (inactive) | > 100 µM (inactive) | > 100 µM (inactive) | > 100 µM (inactive) |
| C1=Cc2nc1c(-c1ccccc1)c1nc(c(-c3ccccc3)c3ccc([nH]3)c(-c3ccccc3)c3ccc([nH]3)c2-c2ccccc2)C=C1 [TETRAPHENYLPORPHYRIN] | > 100 µM (inactive) | > 100 µM (inactive) | > 100 µM (inactive) | > 100 µM (inactive) | > 100 µM (inactive) | > 100 µM (inactive) | > 100 µM (inactive) | > 100 µM (inactive) | > 100 µM (inactive) | > 100 µM (inactive) | > 100 µM (inactive) | > 100 µM (inactive) | > 100 µM (inactive) | > 100 µM (inactive) | > 100 µM (inactive) |
| Cc1nc(-c2nc(C)c(C(=O)NNC(=O)C[n+]3ccccc3)s2)sc1C(=O)NNC(=O)C[n+]1ccccc1 | 59.2 µM (inactive) | 41.3 µM (inactive) | 97.3 µM (inactive) | > 100 µM (inactive) | > 100 µM (inactive) | 70.6 µM (inactive) | 39.5 µM (inactive) | 90.2 µM (inactive) |  | 64.6 µM (inactive) | 37.8 µM (inactive) | > 100 µM (inactive) |  | 79.4 µM (inactive) | 45.7 µM (inactive) |
| Nc1nnc2c(-c3ccccc3)n[nH]c2n1 | 30 µM (inactive) | 18.5 µM (inactive) | 5.9 µM (inactive) | 93.5 µM (inactive) | 24.4 µM (inactive) |  | 46 µM (inactive) | > 100 µM (inactive) | > 100 µM (inactive) | 55.3 µM (inactive) | 24.8 µM (inactive) | 91.6 µM (inactive) | 27.4 µM (inactive) |  |  |
| COC(=O)CC(C(C(C)=O)C(=O)OCc1ccccc1)N1C(=O)OC(c2ccccc2)C1c1ccccc1 (configuration not stated) | > 100 µM (inactive) | 72.4 µM (inactive) and 73.8 µM (inactive) | 64.4 µM (inactive) | > 100 µM (inactive) and 89.3 µM (inactive) | > 100 µM (inactive) | > 100 µM (inactive) |  | 29.6 µM (inactive) and 17.4 µM (inactive) |  | 28.8 µM (inactive) and 33.5 µM (inactive) |  | 65.9 µM (inactive) and 97.7 µM (inactive) | 42.7 µM (inactive) and 42.5 µM (inactive) | 96.6 µM (inactive) and 75.5 µM (inactive) | 60.1 µM (inactive) |
| CNC(=O)NCCCC(NC(C)=O)C(=O)NCc1ccccc1 (configuration not stated) | > 100 µM (inactive) | > 100 µM (inactive) | > 100 µM (inactive) | > 100 µM (inactive) | > 100 µM (inactive) | > 100 µM (inactive) | > 100 µM (inactive) | > 100 µM (inactive) | > 100 µM (inactive) | > 100 µM (inactive) | > 100 µM (inactive) | > 100 µM (inactive) |  | > 100 µM (inactive) | > 100 µM (inactive) |
| CCCCOC1CC2(c3ccc(OC)cc3)C(=O)c3ccccc3N2O1 (configuration not stated) | > 10 µM (inactive) | 31.5 µM (inactive) | 40.7 µM (inactive) |  |  | > 10 µM (inactive) | > 10 µM (inactive) | 56.1 µM (inactive) |  | 18 µM (inactive) | 90.6 µM (inactive) |  |  | > 10 µM (inactive) | 31.7 µM (inactive) |
| CC1(C)OC2C(O1)[C@H]1OC(C(Cl)(Cl)Cl)=N[C@H]1C(I)[C@H]2N1C(=O)c2ccccc2C1=O (some centres not stated) | 65.6 µM (inactive) | 41.4 µM (inactive) | 79.3 µM (inactive) |  | 59.4 µM (inactive) | 25.5 µM (inactive) | > 100 µM (inactive) |  | 24.1 µM (inactive) | 32.7 µM (inactive) | > 100 µM (inactive) | 92.3 µM (inactive) | 23.1 µM (inactive) | 84.9 µM (inactive) | 48.9 µM (inactive) |
| COC(=O)CSc1ccccc1 | > 100 µM (inactive) | > 100 µM (inactive) | > 100 µM (inactive) | > 100 µM (inactive) | > 100 µM (inactive) | > 100 µM (inactive) |  | > 100 µM (inactive) | > 100 µM (inactive) | > 100 µM (inactive) | > 100 µM (inactive) |  |  | > 100 µM (inactive) | > 100 µM (inactive) |
| CC(C)OP(=S)(NC(=S)c1ccccc1)OC(C)C | > 100 µM (inactive) | > 100 µM (inactive) | > 100 µM (inactive) | > 100 µM (inactive) | > 100 µM (inactive) | > 100 µM (inactive) | > 100 µM (inactive) | > 100 µM (inactive) | > 100 µM (inactive) |  | > 100 µM (inactive) | > 100 µM (inactive) |  | > 100 µM (inactive) | 42.9 µM (inactive) |
| c1ccc2c(CNCCCCCCCCNCc3cccc4ccccc34)cccc2c1 | 2.9 µM (inactive) | 1.85 µM (inactive) | 6.03 µM (inactive) |  | 1.8 µM (inactive) | 4.55 µM (inactive) | 11.7 µM (inactive) | 10.6 µM (inactive) | 2.3 µM (inactive) | 1.67 µM (inactive) | 1.63 µM (inactive) | 1.9 µM (inactive) |  | 1.72 µM (inactive) | 1.85 µM (inactive) |
| CCCCCCCCCCCCCP(=O)(O)OCC | > 100 µM (inactive) | > 100 µM (inactive) | > 100 µM (inactive) | > 100 µM (inactive) | > 100 µM (inactive) | > 100 µM (inactive) | > 100 µM (inactive) | > 100 µM (inactive) | > 100 µM (inactive) |  | > 100 µM (inactive) | > 100 µM (inactive) |  | > 100 µM (inactive) | > 100 µM (inactive) |
| COC1/C(=C\C(=O)OC(C)(C)C)c2ccccc2N1C(C)=O (configuration not stated) | > 100 µM (inactive) | > 100 µM (inactive) | > 100 µM (inactive) | > 100 µM (inactive) | > 100 µM (inactive) | > 100 µM (inactive) |  | > 100 µM (inactive) | > 100 µM (inactive) | 34.8 µM (inactive) | > 100 µM (inactive) | > 100 µM (inactive) | 48 µM (inactive) | > 100 µM (inactive) |  |
| O=C(O)Cn1c(=O)[nH]c(=O)c2c1ncn2Cc1ccccc1 | > 100 µM (inactive) | > 100 µM (inactive) | > 100 µM (inactive) |  | > 100 µM (inactive) |  | > 100 µM (inactive) | > 100 µM (inactive) |  | > 100 µM (inactive) | > 100 µM (inactive) | > 100 µM (inactive) | > 100 µM (inactive) | > 100 µM (inactive) | > 100 µM (inactive) |
| C=CCN1/C(=C2\SC(=S)N(c3ccc(C)cc3)C2=O)Sc2c1nc[nH]c2=O | > 100 µM (inactive) | > 100 µM (inactive) | > 100 µM (inactive) |  | > 100 µM (inactive) | 64.9 µM (inactive) | > 100 µM (inactive) | > 100 µM (inactive) | 96.2 µM (inactive) | > 100 µM (inactive) | 48.3 µM (inactive) | > 100 µM (inactive) |  | 79.8 µM (inactive) | 66.1 µM (inactive) |
| O=C(c1ccccc1)C1OC12C(=O)Nc1ccccc12 (configuration not stated) | 56.9 µM (inactive) | 5.68 µM (inactive) | 47.6 µM (inactive) |  | 19.7 µM (inactive) | 47.6 µM (inactive) | 33.4 µM (inactive) | 34.8 µM (inactive) | 47.8 µM (inactive) | 20.7 µM (inactive) | 23.7 µM (inactive) | 29.6 µM (inactive) |  |  | 11.3 µM (inactive) |
| Nc1ncnc2c1ncn2C1CC(OCc2ccccc2[N+](=O)[O-])C(CO)O1 (configuration not stated) | 13.3 µM (inactive) | 16.7 µM (inactive) | 33 µM (inactive) | 28.8 µM (inactive) | 17.5 µM (inactive) | 28.9 µM (inactive) | 11.8 µM (inactive) | 30.1 µM (inactive) | 17.4 µM (inactive) | 14.9 µM (inactive) | 44.5 µM (inactive) | 23.8 µM (inactive) | 10.8 µM (inactive) | 24.2 µM (inactive) |  |
| COc1nc(/C=N/NC(N)=S)nc(OC)n1 | 43.8 µM (inactive) |  | > 100 µM (inactive) | 47.1 µM (inactive) | 76 µM (inactive) | > 100 µM (inactive) | 69.7 µM (inactive) | > 100 µM (inactive) | > 100 µM (inactive) | > 100 µM (inactive) | 32.4 µM (inactive) | > 100 µM (inactive) | 68.7 µM (inactive) | 54.8 µM (inactive) |  |
| O=C1/C(=C\c2ccccc2)C2/C(=C\c3ccccc3)C(=O)/C(=C\c3ccccc3)C2/C1=C\c1ccccc1 (configuration not stated) | 2.29 µM (inactive) | 0.34 µM (active) | 3.89 µM (inactive) | 1.29 µM (inactive) | 1.34 µM (inactive) | 2.01 µM (inactive) |  | 1.73 µM (inactive) | 1.21 µM (inactive) | 0.336 µM (active) | 2.35 µM (inactive) | 2.18 µM (inactive) |  | 1.17 µM (inactive) | 1.9 µM (inactive) |
